Measured values taken from US8981149B2, “Compounds modulating the hedgehog protein signaling pathway, marked forms thereof, and applications” (Centre National De La Recherche Scientifique, priority 2011, dated 2015).
Where “and” joins values, the source holds several entries; their conditions need not be identical. Identical values can stand only once. Counter-ions that a name gives are not always drawn. Like-named read-outs stand apart in the source and are kept apart here.

Key:
C3H10T1/2 cells = test: Differentiation of C3H10T1/2 cells induced by SAG, alkaline phosphatase (AP) activity; type: cell-based, mouse
Method: The test compounds of formula (I) were dissolved in dimethylsulfoxide up to a concentration of 10 mM, then stored at a temperature of −20° C. until used.
The line of C3H10T1/2 pluripotent fibroblast cells (ATCC) was cultured in the conditions recommended by the ATCC. These cells were activated using 0.1 μM of SAG according to the methods described by Chen et al., Proc. Natl. Acad. Sci. USA, 2002, 99, 14071 and Frank-Kamenetsky et al., J. Biol., 2002, 1, 10.
Activation by SAG causes differentiation of the cell line and allows it to express alkaline phosphatase (AP). It was thus possible to measure the activity of the Hedgehog protein signalling pathway via measurement of the alkaline phosphatase (AP) activity.
The C3H10T1/2 cells were seeded on 96-well plates at a density of 5.10^3 cells per well, 24 hours before adding the test compounds at a concentration varying from 1 nM to 30 μM and in the presence of 0.1 μM of SAG, using DMEM (Dulbecco's Modified Eagle's Medium) with 10% fetal calf serum as culture medium. The tests were carried out in quadruplicate. The plates were then incubated for 5 to 6 days at a temperature of 37° C. under 5% CO2 atmosphere. The cells were then washed in cold phosphate buffer (“Phosphate Buffer Serum”: PBS), then lysed by sonication at 4° C. in 50 μL of a solution containing 0.9% of NaCl and 0.2% of Triton X-100.
Measurement of the alkaline phosphatase (AP) activity in the lysates thus obtained was then performed according to the method described by Pepinsky et al. (J. Biol. Chem., 1998, 273, 14037). After adding 100 μL of reaction buffer (200 mM Tris-HCl; pH 10.5; 0.4 M of 2-amino-2-methylpropanol and 8 mM of MgCl2) and 50 μL of substrate (4 mM of p-nitrophenyl disodium phosphate), the lysates were incubated at 37° C. for 30-60 min, then the optical density was read at a wavelength of 415 nm.

[1] = target: T1, human Smoothened receptor (Homo sapiens, UniProt Q99835); test: Inhibition of binding of 3H-(7d) to membranes of HEK-hSmo cells; conditions: for Ki: read-out: Ki ± SEM, binding of compound 3H-(7d)
T1 construct: expressed in transfected cells
T1 sequence (Q99835 28-787): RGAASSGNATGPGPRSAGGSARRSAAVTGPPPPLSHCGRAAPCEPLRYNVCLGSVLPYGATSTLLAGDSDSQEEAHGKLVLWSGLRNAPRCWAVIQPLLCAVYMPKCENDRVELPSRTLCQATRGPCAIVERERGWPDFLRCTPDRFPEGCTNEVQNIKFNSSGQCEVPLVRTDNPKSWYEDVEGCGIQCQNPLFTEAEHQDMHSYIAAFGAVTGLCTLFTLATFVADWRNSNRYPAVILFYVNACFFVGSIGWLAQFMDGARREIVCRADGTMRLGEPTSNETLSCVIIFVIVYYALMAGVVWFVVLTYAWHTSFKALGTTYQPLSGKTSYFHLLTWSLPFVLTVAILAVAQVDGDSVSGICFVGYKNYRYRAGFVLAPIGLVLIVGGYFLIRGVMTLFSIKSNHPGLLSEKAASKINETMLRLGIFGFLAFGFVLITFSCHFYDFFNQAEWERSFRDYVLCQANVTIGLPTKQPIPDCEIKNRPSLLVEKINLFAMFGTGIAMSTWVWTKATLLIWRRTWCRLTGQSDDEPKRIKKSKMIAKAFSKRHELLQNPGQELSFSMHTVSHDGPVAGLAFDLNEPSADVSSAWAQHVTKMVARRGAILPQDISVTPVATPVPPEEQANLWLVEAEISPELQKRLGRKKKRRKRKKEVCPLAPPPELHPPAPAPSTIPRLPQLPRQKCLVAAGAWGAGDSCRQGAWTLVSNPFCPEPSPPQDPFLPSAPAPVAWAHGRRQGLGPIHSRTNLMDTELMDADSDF
Method: The binding test is carried out on membranes enriched with Smoothened receptor. Cells of the HEK-hSmo line were used for preparing these membranes. The cells are washed and recovered in iced PBS. After centrifugation at 100 g for 7 minutes at 4° C., the pellet is taken up in 10 times its volume of an iced buffer A (50 mM HEPES, pH 7.4, 1 mM EDTA) with addition of 10 μl of a cocktail of protease inhibitors (PEAK, Sigma) per ml of buffer, then it is homogenized using a Polytron grinding mill. After centrifugation at 500 g for 30 minutes at 4° C., which makes it possible to remove the nuclei from the cells, the supernatant is centrifuged again at 48 000 g for 45 min at 4° C. The pellet is taken up in 2 ml of buffer A with PEAK added, then the suspension is homogenized using a glass conical grinding mill and is passed through a 23 G needle. Finally, aliquots are placed in Eppendorf tubes and stored at −80° C. The concentration of total protein in the preparation is determined by Lowry's method using BSA for preparing the standard range.
The membranes are resuspended in a buffer (50 mM HEPES and 3 mM MgCl2) containing 0.2% of BSA. The tests of binding of ^3H-(7d) are carried out in polypropylene tubes. The membranes (2 μg of proteins) are incubated with the ^3H-(7d) in the presence or absence of the cold test compounds for 3 hours at 37° C. in a final volume of 400 μl. Incubation is stopped by immersing the tubes in iced water followed by rapid filtration (Brandel) through a glass fiber filtration membrane (GF/C) treated beforehand with 0.3% of polyethylenimine, which can reduce the nonspecific binding of the ^3H-(7d) to the filtration membrane. The radioactivity retained on the filter is measured in the presence of 3 ml of scintillating agent in a liquid scintillation counter.
In this experiment, the cold ligand competes with the radioactive ligand for binding to the receptor, and the affinity (Ki) of each cold ligand for the receptor can be analyzed based on the IC50 values deduced from the inhibition curves.

[2] = Binding of 3H-(7d) to membranes of HEK293 cells not transfected with human Smo cDNA; conditions: 1 μM
PCGs of rat cerebellum = test: Proliferation of granule cell precursors (PCGs) of rat cerebellum induced by SAG, 3H-thymidine incorporation; type: cell-based; conditions: proliferation induced by SAG (0.01 μM), 3H-thymidine incorporation, read-out: IC50 ± SEM, PCGs of rat cerebellum (3)
Method: The granule cell precursors (GCP) are isolated from cerebellums of rats (IFFA-CREDO, France), 8 days after birth (P8). The cerebellums are taken, cut into small pieces, placed in Krebs-Ringer buffer (120 mM NaCl, 5 mM KCl, 1 mM KH2PO4, 25 mM NaHCO3, 15 mM glucose, 0.04 mM phenol red) and incubated for 15 minutes at room temperature in a dissociation buffer composed of Krebs-Ringer with addition of 250 mg/ml of trypsin (Sigma, France). Enzymatic dissociation is stopped by adding an equal volume of Krebs-Ringer buffer containing 250 mg/ml of a trypsin inhibitor and 80 mg/ml of DNase (Sigma, France). The tissue is centrifuged at 100 g for 10 seconds and the pellet obtained is resuspended and triturated using Pasteur pipettes of decreasing diameter to obtain a suspension of isolated cells. This suspension is centrifuged at 200 g for 5 minutes and the pellet obtained is resuspended in Neurobasal medium supplemented with 1 mM of pyruvate, 2 mM L-glutamine, penicillin/streptomycin and 1% of supplement N2, 60 mg/ml N-acetyl cysteine and […] of bovine serum albumin (BSA, Sigma, France).
The cerebellar GCPs obtained are transferred to 96-well plates treated beforehand with poly-D-lysine at a density of 2.10^5 cells/well. SAG in the presence or absence of the other test compounds is added immediately. 12 hours before the end of culture, tritiated thymidine (^3H-thymidine) is added. The cells are aspirated and recovered on a glass fiber filter (GF/C) using an automated cell collector (Brandel, USA). The amount of radioactivity incorporated by the cells was quantified in the presence of a scintillating agent in a liquid scintillation counter (Wallac, USA).
The cerebellar PCGs proliferate in response to activation of the Shh signalling pathway, a response that can be inhibited by the Smo antagonists (Rohatgi et al., 2009, Proc. Natl. Acad. Sci. USA 106: 3196-201). We therefore analyzed the capacity of compound (7d) for inhibiting the proliferation of the PCGs of rat cerebellum in primary culture by measuring the incorporation of tritiated thymidine, a marker of DNA newly synthesized during the proliferation process.

human Smo receptor = target: T2, human Smo receptor (Homo sapiens, UniProt Q99835); test: Competition with bodipy-cyclopamine (BC) binding in HEK-hSmo cells; conditions: for IC50: bodipy-cyclopamine (5 nM), HEK-hSmo cells, read-out: IC50 ± SEM, BC binding (4)
T2 construct: expressed in transfected cells
T2 sequence (Q99835 28-787): as above
Method: Cells of the HEK293 line stably transfected with the human Smo receptor are used. The experiment was conducted according to the protocol described in Roudaut et al., Mol. Pharmacol. 79: 453-460, 2011.
At the end of the incubation, the cells are fixed and stained with DAPI, a fluorescent molecule with high affinity for DNA which makes it possible to visualize the nuclei in blue in fluorescence microscopy.

cells = conditions: Borzillo et al., 2005; cited from earlier work
[3] = Mus musculus, C3H 10T1/2, after induction by SAG at 0.1 μM, read-out: IC50, inhibition of alkaline phosphatase (AP) activity, differentiation of C3H10T1/2 cells
[4] = Mus musculus, C3H 10T1/2, AP activity, differentiation induced by SAG (0.1 μM), read-out: IC50 ± SEM, C3H10T1/2 cells (2)
[5] = 0.35 nM 3H-(7d), HEK-hSmo membranes, 3 hours at 37° C., read-out: IC50 ± SEM, binding of compound 3H-(7d)
[6] = calculated from IC50, HEK-hSmo membranes
[7] = AP activity, differentiation induced by SAG (0.1 μM), read-out: IC50 ± SEM, C3H10T1/2 cells (2)
[8] = after induction by SAG at 0.1 μM, read-out: IC50, inhibition of alkaline phosphatase (AP) activity, differentiation of C3H10T1/2 cells

`COc1cc(C(=O)NC(=N)Nc2ccc(C)c(NC(=O)c3ccc(C/C=C/c4ccccc4)cc3)c2)cc(OC)c1OC` [Compound 7e, (E)-N—(N-(3-(4-cinnamylbenzamido)-4-methylphenyl)carbamimidoyl)-3,4,5-trimethoxybenzamide hydrochloride] showed an IC50 (C3H10T1/2 cells; [3]) of 57 ± 2 nM.

In the case of `COc1cccc(CN(C(=O)CC(C)(C)C)[C@H]2C[C@@H](C(=O)N3CCNCC3)N(Cc3ccc4c(c3)OCO4)C2)c1` [Cur61414], the “Inhibition of the binding of compound 3H-(7d), in words” value ([1]; HEK-hSmo membranes) is reported as “micromolar order”.

In the case of `CS(=O)(=O)c1ccc(C(=O)Nc2ccc(Cl)c(-c3ccccn3)c2)c(Cl)c1` [GDC-0449], the IC50 (C3H10T1/2 cells; [4]) is reported as 10 ± 3 nM, the IC50 (C3H10T1/2 cells; [3]) is reported as 10 ± 1 nM and the “Inhibition of the specific binding of compound 3H-(7d) at a single concentration” value ([1]; 1 μM) is reported as “completely inhibits”. The “Effect on the binding of compound 3H-(7d) to non-transfected membranes” value [2] was “no effect” and the IC50 (PCGs of rat cerebellum; Rattus norvegicus) was 8 ± 1 nM.

For `COc1cc(C(=O)NC(=N)Nc2ccc(C)c(NC(=O)c3ccc4c(c3)Cc3ccccc3-4)c2)cc(OC)c1OC` [Compound 7b, N-(2-methyl-5-(3-(3,4,5-trimethoxybenzoyl)guanidino)phenyl)-9H-fluorene-2-carboxamide hydrochloride], the IC50 (C3H10T1/2 cells; [3]) was 28 ± 3 nM.

`COc1cc(C(=O)NC(=N)Nc2ccc(C)c(NC(=O)c3ccc(Cc4ccccc4)cc3)c2)cc(OC)c1OC` [Compound 7g, N—(N-(3-(4-benzylbenzamido)-4-methylphenyl)carbamimidoyl)-3,4,5-trimethoxybenzamide hydrochloride] gave an IC50 (C3H10T1/2 cells; [3]) of 220 ± 25 nM.

In the case of `Cc1c(C(=O)Nc2ccc(N3C[C@@H](C)O[C@@H](C)C3)nc2)cccc1-c1ccc(OC(F)(F)F)cc1` [LDE225], the IC50 (C3H10T1/2 cells; [4]) is reported as 22 ± 3 nM, the IC50 (C3H10T1/2 cells; [3]) is reported as 22 ± 3 nM and the IC50 [1, 5] is reported as 4 nM and 4.2 nM. The Ki [1, 6] was 1.9 ± 0.3 nM, the IC50 (human Smo receptor) was 8 ± 2 nM and the IC50 (PCGs of rat cerebellum; Rattus norvegicus) was 3 nM.

In the case of `COc1cc(C(=O)NC(=N)Nc2ccc(C)c(NC(=O)c3ccc(OCc4ccccc4)cc3)c2)cc(OC)c1OC` [Compound 7h, N—(N-(3-(4-(benzyloxy)benzamido)-4-methylphenyl)carbamimidoyl)-3,4,5-trimethoxybenzamide hydrochloride], the IC50 (C3H10T1/2 cells; [3]) is reported as 72 ± 15 nM.

With `c1ccc2c(Oc3nc(Nc4ccc(N5CCOCC5)cc4)c4ncn(C5CCCCC5)c4n3)cccc2c1` [Purmorphamine, purmorphamine] the “IC50 ± SEM, binding of compound 3H-(7d)” value ([1]; 0.35 nM 3H-(7d), HEK-hSmo membranes, 3 hours at 37° C.) was “inactive”, the “Inhibition of the binding of compound 3H-(7d), in words” value ([1]; HEK-hSmo membranes) was “not active” and the IC50 ([1]; HEK-hSmo membranes, agonists (FIG. 5), read-out: IC50, binding of compound 3H-(7d), unit inferred) was greater than 1000 nM. For the same compound, the “Ki ± SEM, binding of compound 3H-(7d)” value [1, 6] was “inactive”.

In the case of `COc1cc(C(=O)NC(N)=Nc2ccc(C)c(NC(=O)c3ccc(-c4ccccc4)cc3)c2)cc(OC)c1OC` [MRT-83], the IC50 (C3H10T1/2 cells; [7]) is reported as 11 ± 3 nM, the IC50 (C3H10T1/2 cells; [8]) is reported as 11 ± 3 nM and the IC50 [1, 5] is reported as 11 nM and 10.5 nM. The Ki [1, 6] was 4.8 ± 1.2 nM, the “Block of the binding of BC to HEK-hSmo cells, in words” value (human Smo receptor; BC 5 nM, 2 hours) was “very similar and high” and the IC50 (human Smo receptor) was 5 ± 3 nM. The IC50 (PCGs of rat cerebellum) was 6 nM.

In the case of cyclopamine, the “Concentration cytotoxic for the cells” value (cells) is listed as “above 10 μM”, the IC50 (C3H10T1/2 cells; [7]) is listed as 620 ± 30 nM and the IC50 (C3H10T1/2 cells; [8]) is listed as 620 ± 30 nM. The IC50 (PCGs of rat cerebellum) was 103 nM.

For `CNC1CCC(N(Cc2cccc(-c3ccncc3)c2)C(=O)c2sc3ccccc3c2Cl)CC1` (centres unmarked) [SAG], the IC50 [1, 5] was 5 nM and 5.2 nM and the Ki [1, 6] was 2.4 ± 0.3 nM.

In the case of `COc1cc(C(=O)NC(=N)Nc2ccc(C)c(NC(=O)c3ccc(C(=O)c4ccccc4)cc3)c2)cc(OC)c1OC` [Compound 7a, N—(N-(3-(4-benzoylbenzamido)-4-methylphenyl)carbamimidoyl)-3,4,5-trimethoxybenzamide hydrochloride], the IC50 (C3H10T1/2 cells; [3]) is reported as 32 ± 11 nM.

`COc1cc(C(=O)NC(=S)Nc2cccc(NC(=O)c3ccccc3)c2)cc(OC)c1OC` [MRT-10] gave an IC50 (C3H10T1/2 cells; SAG 0.1 μM, Mean ± SEM, n ≧ 3, read-out: IC50, differentiation of C3H10T1/2 cells) of 900 ± 200 nM.
